Legend:
Vero cells [1] = experiment: CellTiter Blue (CTB) cell viability assay; assay type: cell-based; settings: 24 h
Description: The in vitro cytotoxicity test of CPol-choline analog or other chemicals on Vero cells was determined by CellTiter Blue (CTB) cell viability assay (Promega). Briefly, Vero cells were cultured in 96-well plates at a density of 12.5×10^3 cells per well one day prior experiment. On the following day, the media was replaced by fresh 10% FBS DMEM containing the choline analogs at the concentrations of 0.2, 0.4, 0.8, 1, and 5 mM and incubated for 24 h at 37° C. The cells without the compounds were used as controls. NaI and I2 were also tested at the concentrations varied from 0.01 to 10,000 μM. The experiments were performed in quadruplicate. After 24 h of incubation, the media in each well was replaced by prewarmed media containing 10% CTB reagent and incubated for 2 h at 37° C. and 5% CO2. The medium containing CTB without cells was used as a negative control. Fluorescence intensity was then measured at 560/590 nm (Ex/Em) using SpectraMax M2 Multi-Mode microplate reader (Molecular Devices) to indicate cell viability.

Vero cells [2] = experiment: Metabolic incorporation of CPol-choline, lipidomic experiments and LC-MS; assay type: cell-based; settings: 5 mM, 24 h
Description: (§1) Three million cells (Vero, HeLa, or NIH-3T3) were seeded into a 10-cm cell culture dish and allowed attachment for 24 h in a complete medium (DMEM with 10% FBS) in a CO2 incubator. When cells reached 70-80% confluency, choline analog (PCPol-Cho or ECPol-Cho) at a final concentration of 5 mM was added into cells and co-cultured for another 24 h. The adhered cells were washed with 5 mL ice-cold DPBS (Dulbecco's Phosphate-Buffered Saline, CORNING), and were scratched into ice-cold PBS (5 mL), pooled in a centrifuge tube, and centrifuged at 1,000 rpm for 5 min at room temperature. The supernatant was then aspirated off and the lipids were extracted from the resultant pellet using the modified Bligh Dyer method. Briefly, the cell pellet was treated with a mixture of chloroform and methanol (1 mL of a 1:2 v/v solution), vortexed for 1 min, followed by addition of chloroform (0.5 mL) and 1 M NaCl (0.5 mL), and again vortexed for 1 min. Phase separation was achieved by centrifuging the mixture at 3,220 g at 4° C. for 30 min. The lower lipid-enriched organic layer was separated and dried using nitrogen at room temperature. For all LC-MS/MS analyses, the dried lipids were dissolved in a mixture of chloroform and methanol (200 μL of a 1:1 v/v solution). For all control experiments, the procedure described above was followed without administration of any choline derivatives.
(§2) Choline stands as the predominant head group in phospholipids which are the principal components of all cellular membranes. […] (FIG. 5A). The metabolic incorporation efficiency of CPol-choline was evaluated through lipidomic experiments (FIG. 15A) and LC-MS (FIG. 15B).

Hela cells = experiment: as above; assay type: cell-based; settings: 5 mM, 24 h
Description: as §1, §2

NIH-3T3 cells = experiment: as above; assay type: cell-based; settings: 5 mM, 24 h
Description: as §1, §2

Vero cells [3] = experiment: Electrochemically assisted cell labeling, FTSCA fluorescence; assay type: cell-based; settings: CPol+NaI+Echem group: 5 mM CPol-choline, NaI 100 μM, 0.7 V, 50 μM FTSCA, plate reader
Description: Vero cells were cultured in a 100-mm cell culture dish and allowed attachment overnight in a complete medium (DMEM with 10% FBS). When cells reached 60-70% confluency, CPol-choline analog at a final concentration of 5 mM was added into Vero cells and co-cultured for 24 h. The labeled Vero cells were harvested into 5 mL Dulbecco's Phosphate-Buffered Saline (DPBS 1×, CORNING). The cell numbers were counted using a hemocytometer. The cell concentration at 6×10^6 cells was used in the experiment. Subsequently, the Vero cell suspension was treated with NaI (100 μM) and low cell potential (0.7 V) under divided H-cell for 10 min. […] For the fluorescence imaging, the cells in a 24-well plate were fixed with 70% ethanol at −20° C. for 10 min, washed with DPBS three times, and then reacted with 50 μM FTSCA for 1 h at room temperature. After removing the unbound FTSCA, the cells were imaged by a fluorescence microscope (Olympus IX81, Shinjuku-ku, Tokyo, Japan). […] After washing with DPBS, the plate was read using a plate reader (Tecan Infinite M200 microplate reader) with an excitation wavelength of 491 nm and emission cutoff at 520 nm. […]
The intensity of this fluorescence was quantified using a plate reader and visualized using fluorescence microscopy (FIG. 6A). […]

lysozyme = lysozyme (Gallus gallus, UniProt P00698); experiment: Electrochemically promoted bioconjugation, MALDI-TOF MS; assay type: biochemical; settings: NaBr, constant voltage 1.2 V, phosphate buffer 0.1 M pH 7.0
Sequence of lysozyme (P00698 19-147): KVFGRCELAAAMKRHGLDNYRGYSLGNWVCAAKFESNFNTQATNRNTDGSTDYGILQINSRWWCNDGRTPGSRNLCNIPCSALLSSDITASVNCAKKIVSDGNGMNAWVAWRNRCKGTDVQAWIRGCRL
Description: (§3) Mass spectra were generated with a MALDI-TOF mass spectrometer (rapifleX MALDI Tissuetyper from BRUKER) equipped with a solid-state smart beam and operated in a linear delayed extraction positive ion mode. The samples of conjugated peptide were concentrated using IMCStips (1 mL, IMCS company) and eluted with 70% acetonitrile/0.1% trifluoracetic acid (TFA) following the manufacturer protocol. Of note, the samples of conjugated proteins and viruses were denatured by incubating with guanidinium chloride (8 M) for 5 min at RT, followed by the removal of salts and elution using IMCStips. The resultant samples were spotted on a MALDI plate. These spots were analyzed by MALDI-TOF MS spectrometer with the matrix (Vsample: Vmatrix=1:1). Matrix of sinapic acid in 50% acetonitrile/0.1% TFA was used for protein measurements, and the matrix of a-Cyano-4-hydroxycinnamic acid in 50% acetonitrile/0.1% TFA was used for peptide measurements.
(§4) To further access the compatibility of biomolecules and various CPol derivatives within the electrochemical bioconjugation process, a range of biomolecules including peptides, proteins, and TMV, along with different CPol derivatives, were subjected to the NaI or NaBr redox catalyst and a low cell potential of 0.8 V or 1.2 V individually (FIG. 4A). Electrochemical bioconjugation was employed for labeling angiotensin I, which is a peptide hormone responsible for vasoconstriction and evaluated in blood pressure. […] However, when modifying angiotensin I with NaI at a voltage of 0.8V, certain side reactions may occur. […] Thus, we conducted a preliminary reaction involving bivalirudin or lysozyme, compound 1, and the resulting Br-substituted ketone without the application of electrochemical conditions (FIGS. 11-12).
(§5) Subsequently, the electrochemical bioconjugation approach was evaluated on lysozyme, a 14 kDa cationic protein. […] Additionally, the electrochemical bioconjugation on bovine serum albumin (BSA) was also evaluated. […] Besides, the conjugated biomolecule was conjugated with biotin-oxyamine under weak acidic conditions (m/z=18063 in FIG. 4F), which can be used in further cell labeling or protein proteomic analysis.

[4] = target: bovine serum albumin (BSA) (Bos taurus, UniProt P02769); experiment: as above; assay type: biochemical; settings: NaX (X=I or Br), 0.8 V or 1.2 V, phosphate buffer 0.1 M pH 7.0
Sequence of bovine serum albumin (BSA) (P02769 25-607): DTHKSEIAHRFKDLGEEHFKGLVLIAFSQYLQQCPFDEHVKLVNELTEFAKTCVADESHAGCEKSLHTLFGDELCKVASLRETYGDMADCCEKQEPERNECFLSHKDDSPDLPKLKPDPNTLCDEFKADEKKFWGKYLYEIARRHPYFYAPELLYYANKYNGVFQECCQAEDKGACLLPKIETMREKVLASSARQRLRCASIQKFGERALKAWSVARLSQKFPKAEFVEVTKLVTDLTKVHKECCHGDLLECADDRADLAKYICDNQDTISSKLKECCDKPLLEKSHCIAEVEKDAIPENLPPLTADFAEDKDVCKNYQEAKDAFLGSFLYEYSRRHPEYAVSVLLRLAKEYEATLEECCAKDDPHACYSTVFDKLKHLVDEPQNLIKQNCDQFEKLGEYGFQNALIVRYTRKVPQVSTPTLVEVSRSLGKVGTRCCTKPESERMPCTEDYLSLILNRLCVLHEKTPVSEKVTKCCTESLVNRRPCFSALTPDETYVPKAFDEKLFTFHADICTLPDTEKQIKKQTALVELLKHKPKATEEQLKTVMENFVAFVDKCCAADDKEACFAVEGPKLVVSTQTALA
Description: as §3, §4, §5

[5] = system: wild-type tobacco mosaic virus (wt-TMV); experiment: as above; assay type: biochemical
Description: To purify wild-type plant virus tobacco mosaic virus (TMV), frozen TMV leaves were crushed and blended. Approximately 3 volumes of phosphate buffer were added to the crushed leaves with an addition of 0.2-0.3% 2-mercaptoethanol. The leaves were blended for 2 min at a low setting and then switched to the highest setting for an additional 3 min. The blended plant sap was filtered through two layers of cheesecloth and then flow through was centrifuged at 10500 rpm (Sorvall SLA 1500) at 4° C. for 20 min. The resulting supernatant was then pooled together and mixed with n-butanol/chloroform at a ratio of 2:1:1 (plant sap/n-butanol/chloroform). The homogenate was stirred for 30 min on ice and then centrifuged at 6000 rpm (SLA 4000) for 10 min at 4° C. The upper aqueous layer was transferred to a beaker, and the virus was precipitated by adding 0.2 M NaCl and 8% (wt/vol) PEG-8000. The mixture was stirred on ice for 60 min and centrifuged at 12000 rpm (Sorvall SLA1500) for 20 min. The white precipitant was then resuspended with 10 mM K phos buffer (pH 7.8). The solution was centrifuged at 9,500 rpm for 15 min at 4° C. to remove excess PEG. The supernatant was transferred to ultracentrifuge tubes (Beckman 50.2 Ti) and the virus was pelleted at 42,000 rpm at 4° C. for 3 h. The virus pellet was resuspended in 100 mM K phos buffer (pH 7.8) overnight at 4° C. UV absorbance was measured at 260 and 280 nm wavelengths to determine the concentration of the virus. […] The purified virus solutions were stored at 4° C.
Mass spectra were generated with a MALDI-TOF mass spectrometer (rapifleX MALDI Tissuetyper from BRUKER) equipped with a solid-state smart beam and operated in a linear delayed extraction positive ion mode. […] These spots were analyzed by MALDI-TOF MS spectrometer with the matrix (Vsample: Vmatrix=1:1). […]
Subsequently, the electrochemical bioconjugation approach was evaluated on lysozyme, a 14 kDa cationic protein. […] Additionally, the electrochemical bioconjugation on bovine serum albumin (BSA) was also evaluated. […]

angiotensin I = target: T1, angiotensin I (Homo sapiens, UniProt P01019); experiment: Electrochemically promoted bioconjugation, MALDI-TOF MS and LC-MS; assay type: biochemical; settings: NaBr, constant voltage 1.2 V
T1 construct: labeling angiotensin I, which is a peptide hormone responsible for vasoconstriction
Description: as §3, with “Matrix of sinapic acid in 50% acetonitrile/0.1% TFA was used for protein measurements, and the matrix of a-Cyano-4-hydroxycinnamic acid in 50% acetonitrile/0.1% TFA was used for peptide measurements.” left out
(§6) To further access the compatibility of biomolecules and various CPol derivatives within the electrochemical bioconjugation process, a range of biomolecules including peptides, proteins, and TMV, along with different CPol derivatives, were subjected to the NaI or NaBr redox catalyst and a low cell potential of 0.8 V or 1.2 V individually (FIG. 4A). Electrochemical bioconjugation was employed for labeling angiotensin I, which is a peptide hormone responsible for vasoconstriction and evaluated in blood pressure. […]

bivalirudin = experiment: as above; assay type: biochemical; settings: NaBr, constant voltage 1.2 V, batch reaction
Description: as §3, with “Matrix of sinapic acid in 50% acetonitrile/0.1% TFA was used for protein measurements, and the matrix of a-Cyano-4-hydroxycinnamic acid in 50% acetonitrile/0.1% TFA was used for peptide measurements.” left out
as §6

SMILES: Br.C[N+](C)(CCO)CCCC1(O)CC1 [CPol-choline analog]
- cytotoxicity on Vero cells (Vero cells [1]; choline analog 0.2-5 mM): no cytotoxicity was observed
- metabolic incorporation into cells (Vero cells [2]): successfully incorporated
- metabolic incorporation into cells (Hela cells): successfully incorporated
- metabolic incorporation into cells (NIH-3T3 cells): successfully incorporated
- intracellular fluorescence intensity after labeling with FTSCA (Vero cells [3]): strongest fluorescent intensity

SMILES: OC1(c2ccccc2)CC1 [Formula I-1, Phenylcyclopropanol]
- conjugation to lysozyme (lysozyme): efficiently conjugated
- conjugation to BSA [4]: efficiently conjugated
- conjugation to wt-TMV ([5]; CPol derivative 10 eq., NaI, potential of 1.2 V): modified TMV peak ([M+132]^+) was found
- conjugation to wt-TMV ([5]; identical electrochemical conditions (1.2 V) without NaI): no reaction occurred
- labeling of angiotensin I (angiotensin I): successful labeling
- modification of bivalirudin (bivalirudin): effectively modified

SMILES: CCCCCC1(O)CC1 [Formula I-4, Pentylcyclopropanol]
- conjugation to lysozyme (lysozyme): efficiently conjugated
- conjugation to BSA [4]: efficiently conjugated
- conjugation to wt-TMV ([5]; NaBr, constant voltage 1.2 V): successfully modified

SMILES: OC1(c2ccc(C(F)(F)F)cc2)CC1 [Formula I-7, 1-(4-(trifluoromethyl)phenyl)cyclopropan-1-ol]
- conjugation to lysozyme (lysozyme): efficiently conjugated

SMILES: [I-].[Na+] [NaI, sodium iodide]
- cytotoxicity on Vero cells (Vero cells [1]; NaI 0.01 to 10,000 μM): safely co-cultured

From US20250129116A1, “CYCLOPROPANOL AS A BIOORTHOGONAL WARHEAD FOR ELECTROCHEMICALLY CONTROLLED BIOCONJUGATION APPLICATIONS” (UNIVERSITY OF SOUTH CAROLINA, priority 2023, published 2025)
